≈ marks a conversion by molar mass, not a printed value.
Columns and labels:
mPTP [1] = experiment: mPTP activity assay in isolated rat brain mitochondria; assay type: biochemical; settings: isolated rat brain mitochondria
Description: MPTP activity was measured in brain mitochondria freshly isolated from female Sprague Dawley (250 to 300 gram) rats. Anaesthetised rats were perfused in-situ with ˜40 ml cold Dulbecco's Phosphate Buffered Saline (DPBS), then brains dissected and transferred into 30 ml Isolation Buffer (225 mM mannitol, 75 mM sucrose, 1 mM EGTA, adjusted to pH 7.4 with 1 M NaOH). The brain was minced using tweezers and a scalpel into ˜5 mm pieces then transferred into a 50 ml Potterton Dounce homogenization tube on ice containing 10 ml ice-cold isolation buffer (as above with addition of Complete Protease inhibitor; 1 tablet per 50 ml buffer). Homogenisation was carried out using a teflon pestle at 1800 rpm. The slurry was centrifuged at 2000 g for 10 min at 4° C., then the supernatant centrifuged at 12,000 g for 9 min. The pellet was resuspended with a dounce homogeniser in isolation buffer as above but with the addition of 0.02% digitonin, centrifuged at 12,000 g for 11 min and finally resuspended in 5 ml modified isolation buffer (as above but with EGTA reduced to 0.1 mM).
Test compounds were prepared in 384 well polypropylene assay plates as described above for the liver mitochondria assay. A stock mitochondria/Fluo5N assay solution was prepared in 5.6 ml assay buffer (120 mM mannitol, 40 mM MOPS, 5 mM KH2PO4, 60 mM KCl, 10 mM pyruvate, 2 mM malate, 2 mM MgCl2, 20 μM ADP, 1.26 μM oligomycin A, adjusted to pH 7.4) supplemented with Fluo5N pentapotassium salt (2 μM) and 1 ml mitochondria suspension, then transferred (15 μl) into the assay plate containing test compounds and incubated for 10 min at RT. Assay plates were then transferred to a FLIPR Tetra plate reader (Molecular Devices). Dye fluorescence was then measured every 3 sec for a total of 10 min. After 12 sec, a 2.5 μl bolus of Ca2+(75 μM) was added from a source plate containing 675 μM CaCl2 in FLIPR assay buffer. IC50 values for test compounds were calculated using the fluorescence value collected at the 10 min timepoint with % inhibition calculated using the DMSO control and cyclosporin A values at […].

mPTP [2] = experiment: mPTP activity assay in isolated rat liver mitochondria (Ca2+ retention, Fluo5N, FLIPR); assay type: biochemical; settings: isolated rat liver mitochondria; average value from multiple experiments (n ≥ 2)
How it was run: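 Freshly isolated female Sprague Dawley rat liver mitochondria in pH 7.4 buffer with 10 mM succinate, 1 μM rotenone and 2 μM Fluo5N, preincubated 10 min at RT with compound (30 μM to 1 nM). CaCl2 bolus (75 μM) added; IC50 from 10 min fluorescence, normalised to DMSO and 5 μM cyclosporin A.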

mPTP [3] = experiment: mPTP human platelet mitochondria membrane potential flow cytometry assay; assay type: cell-based; settings: stimulated human platelets
Description: The mPTP cell based assay was performed using a mitochondria membrane potential flow cytometry assay in stimulated human platelets. Simulation of platelets results in the rapid influx of Ca^2+ across the platelet membrane. The Ca^2+ is then sequestered by mitochondria until the threshold for mPTP opening is reached, at which point the pore opens and the mitochondrial membrane potential is dissipated. Changes in mitochondria membrane potential due to mPTP opening can be quantified in live platelets using standard mitochondrial membrane potential dyes e.g. 3,3′-dihexyloxacarbocyanine Iodide; DiOC6 (3), enabling pharmacological characterisation of mPTP inhibitors.
Fresh human blood (20 ml) was collected from consented donors into 3.2% sodium citrate. Platelets were isolated by centrifugation at 200 g for 20 min at room temperature, then the platelet rich plasma layer transferred to a fresh tube. Prostaglandin 12 is added to the platelets at a final concentration of 20 ng/ml. After centrifugation at 640 g for 10 min, the platelet rich pellet was resuspended in 4 ml HEPES assay buffer (137 mM NaCl, 2.7 mM KCl, 11.9 mM NaHCO3, 0.42 mM NaH2PO4, 1 mM MgCl2, 5.5 mM glucose, 0.1% bovine serum albumin, 10 mM HEPES adjusted to pH 7.4) and stored on ice.
Test compounds were prepared from 10 mM stocks in DMSO and serially diluted in assay buffer containing 0.4% DMSO and 25 μl transferred into a 96 well plate. Platelets were loaded with the mitochondrial membrane potential dye DiOC6 (3) (3,3′-dihexyloxacarbocyanine Iodide; Invitrogen) at 200 nM for 30 min, then 50 μl plated into each well of the 96 well plate containing diluted test compound and incubated for 15 min. Control wells included DMSO (0.1% final concentration) only or 5 μM cyclosporin A. Platelets were then stimulation with the addition of assay buffer (25 μl) containing CaCl2, alpha thrombin and Convulxin to achieve a final concentrations of 2 mM, 0.017 U/ml and 0.167 μg/ml respectively and incubated for 14 min. The reaction was stopped by the addition of 25 μl 15 mM EDTA in assay buffer. The mitochondrial membrane potential across the population of platelets in each well was then quantified by flow cytometry using a Guava easyCyte 5 Benchtop Flow Cytometer with 3000 events per well. The percentage of platelets with a depolarised mitochondrial membrane potential was calculated for each well. A pIC50 for each compound was then calculated using a standard four parameter curve fit model (GraphPad Prism).

[4] = Microsomal clearance assay, rat liver microsomes; assay type: in vitro ADME; settings: average value from two experiments, read-out: Rat liver microsomes intrinsic clearance (CLint)
Description: The microsomal stability of test compounds was evaluated using rat liver microsomes (BioIVT) with and without the cofactors nicotinamide adenine dinucleotide phosphate (NADPH) and uridine-diphosphate-glucuronic acid (UDPGA). Reactions were performed in a final volume of 250 μl pre-warmed (37° C.) 100 mM phosphate buffer containing 5 mM MgCl2, 0.025 mg/ml alamethicin, and 0.5 mg/ml rat liver microsomes. NADPH and UDPGA were included at 1 mM and 2 mM respectively, where appropriate. Reactions were started with the addition of 1 μM (final concentration) test compound. Verapamil was used as the positive control. Solutions were incubated in a water bath at 37° C. and aliquots collected at 0.5, 5, 15, 30 and 60 min. Reactions were stopped by the addition of 5 volumes of cold acetonitrile with internal standards (200 nM caffeine and 100 nM tolbutamide). Samples were centrifuged at 3220 g for 40 min. An aliquot of supernatant was diluted 1:1 In ultra-pure H20, then used for LC-MS/MS analysis. Peak areas were determined from extracted ion chromatograms. The slope value, k, was determined by linear regression of the natural logarithm of the remaining percentage of the parent drug vs. incubation time curve. The in vitro half-life (in vitro t1/2) was determined from the slope value: in vitro t1/2=0.693/k. Conversion of the in vitro t1/2 (min) into the in vitro intrinsic clearance (in vitro CLint, in μL/min/mg protein) was done using the following equation (mean of duplicate determinations): in vitro Clint=(0.693/t1/2)*(Vol of incubation (μl)/amount of protein (mg)).

PBS solubility = assay type: physicochemical; settings: aqueous buffer, kinetic from dmso stock; PBS pH 7.4, 2 hr at 25° C.
How it was run: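 Compound from 10 mM DMSO stock was added in duplicate to FaSSIF or PBS (pH 7.4) and shaken at 1100 rpm for 2 hr at 25 °C. After filtration, the filtrate was quantified by LC-MS/MS with internal standard against a standard of known concentration.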

Structure (SMILES)	mPTP Rat brain pIC50 (mPTP [1])	mPTP Rat liver pIC50* (mPTP [2])	mPTP Human platelets pIC50 (mPTP [3])	microsomal CLint at 1 µM [4] [µL/min/mg]	solubility at 2 h (PBS solubility) [µM]
Cc1c(F)cccc1NC(=O)/C=C/c1ccc2cn[nH]c2c1 [Comparative Example 1, (E)-N-(2-methyl-3-fluorophenyl)-3-(1H-indazol-6-yl)acrylamide, reference compound]	7.6	8.0	6.9	–	–
O=C(/C=C/c1ccc2cn[nH]c2c1)NC1CCc2ccc(F)cc21 (stereo not shown) [Example 6, (E)-N-(6-fluoro-2,3-dihydro-1H-inden-1-yl)-3-(1H-indazol-6-yl)acrylamide]	–	6.0	4.9	59	9.1 (≈ 2.92 µg/mL)
